Measurements taken from US20080095754A1, “OPHTHALMIC COMPOSITIONS COMPRISING DIGLYCINE” (priority 2006, published 2008).
Residues, ends and D or L forms follow the SMILES beside them.

Experiments:
lysozyme [1] = test: Far-UV circular dichroism (CD) thermal melting of lysozyme in formulated solutions; type: physicochemical; details: for change of lysozyme Tm, CD: glycerin 1%, trehalose 1% and 5%, alone; for reversibility of thermal denaturation / refolding of lysozyme, CD: second scan
Protocol: (§1) To evaluate the effect of diglycine on the conformational stability of lysozyme, Formulations 1 and 2 as well as a formulation without diglycine were analyzed by differential scanning calorimetry (DSC) and circular dichroism (CD). Before DSC and CD analysis, a lysozyme solution was prepared in borate buffer, pH 7.3 (sodium borate, 0.09%; boric acid, 0.85%; sodium chloride, 0.22%) at a concentration of 5 mg/mL, and was dialyzed against the formulated solutions containing 0, 1 (Formulation 1), and 3% (Formulation 2) diglycine, at 2-8° C. for 16 hours. Thermal scans were preformed twice to investigate the reversibility of thermal unfolding for both DSC and CD. This study examines the values of melting temperature (Tm), unfolding enthalpies (ΔH), and the ability of the lysozyme to refold upon unfolding for each of the three formulations because these parameters, in general, predict the thermostability of a protein and approximates the susceptibility of a protein to aggegrate and other irreversible changes at lower temperatures.
CD spectra were conducted on a Jasco-810 Spectropolarimeter. The far-UV CD studies were preformed in a 1-mm pathlength cell at a protein concentration of 0.2 mg/mL, using a scan rate of 50 nm/min from 190 nm to 260 nm and a scan rate of 1° C./min from 20° C. to 95° C. The melting temperatures and the unfolding enthalpies were determined from the denaturation curved obtained from the dependency of the mean residue ellipticity at 230 nm on temperature.
A second experiment screened the additives glycerin, trehalose, and hyaluronic acid (HA) in combination with 1% diglycine, for their ability to stabilize the conformation of lysozyme. VP-DSC and CD were again used to measure the melting temperatures (Tm), unfolding enthalpies (ΔH), and the ability to refold the lysozyme upon unfolding.
Before DSC and CD analysis, the lysozyme solution was prepared in a borate buffer, pH 7.3 (sodium borate, 0.09%; boric acid, 0.85%; sodium chloride, 0.22%) at a concentration of 5 mg/mL. It was then dialyzed against the formulated solutions containing either 1% glycerin, 1% trehalose, 5% trehalose, 1% diglycine and 3% glycerin, or 1% diglycine and 3% trehalose, at 2-8° C. for 16 hours. For the hyaluronic acid formulation, the lysozyme solution was dialyzed against the borate buffer, and subsequently diluted to the desired concentrations with 0.2% of hyaluronic acid for analyses. Thermal scans were performed twice to investigate the reversibility of thermal unfolding for both methods.
The VP-DSC results are supported by the circular dichroism (CD) spectral measurements which were conducted as a function of temperature on a Jasco-810 Spectropolarimeter. The far-UV CD studies were performed in a 1-mm pathlength cell at a protein concentration of 0.2 mg/mL, and a scan rate of 1° C./min form 20° C. to 95° C. The melting temperatures and the Van't Hoff enthalpies were determined from denaturation curves obtained from the mean residue ellipticity at 230 nm as a function of temperature. Tables 2 and 3 summarize the results of the CD measurements and FIGS. 13-18 show the CD-thermal scans.

lysozyme [2] = test: VP-DSC thermal unfolding of lysozyme in formulated solutions; type: physicochemical; details: for reversibility of thermal denaturation / refolding of lysozyme, VP-DSC: second scan; for increase in the melting temperature of lysozyme: in both VP-DSC and CD
Protocol: as §1
For the DSC analysis, thermograms were obtained on a VP-DSC (Microcal, USA) at a scan rate of 90° C. per hour from 10° C. to 95° C. All samples were diluted with the formulated solutions to a concentration of 0.5 mg/mL, and degassed for 4 minutes using a vacuum. The thermograms were corrected for the baseline signal and normalized for protein concentration. Using a non-2-state unfolding model, the Tm and the ΔH were determined by Origin software. […]

For `OC[C@H]1O[C@H](O[C@H]2O[C@H](CO)[C@@H](O)[C@H](O)[C@H]2O)[C@H](O)[C@@H](O)[C@@H]1O` [trehalose], the “change of lysozyme Tm, CD” value (lysozyme [1]) was “did not increase”, the “reversibility of thermal denaturation / refolding of lysozyme, CD” value (lysozyme [1]) was “not able to refold” and the “change of lysozyme Tm, VP-DSC” value (lysozyme [2]) was “did not increase”. For the same compound, the “reversibility of thermal denaturation / refolding of lysozyme, VP-DSC” value (lysozyme [2]) was “not able to refold”.

With `NCC(=O)NCC(=O)O` [diglycine] (H-Gly-Gly-OH) the “reversibility of thermal denaturation / refolding of lysozyme, CD” value (lysozyme [1]) was “at least partially reversible”, the “increase in the melting temperature of lysozyme” value (lysozyme [2]; 1% w/w diglycine vs borate buffer) was “approximately 2 °C” and the “increase in the melting temperature of lysozyme” value (lysozyme [2]; 3% w/w diglycine vs borate buffer) was roughly 4 °C. For the same compound, the “reversibility of thermal denaturation / refolding of lysozyme, VP-DSC” value (lysozyme [2]) was “at least partially reversible”.

With `OCC(O)CO` [glycerin] the “change of lysozyme Tm, CD” value (lysozyme [1]) was “did not increase”, the “reversibility of thermal denaturation / refolding of lysozyme, CD” value (lysozyme [1]) was “partial refolding phenomenon” and the “change of lysozyme Tm, VP-DSC” value (lysozyme [2]) was “did not increase”. The “reversibility of thermal denaturation / refolding of lysozyme, VP-DSC” value (lysozyme [2]) was “not able to refold”.
